PubChem BioAssay (NCI)
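Cells were grown in 96-well plates and exposed to each compound for 48 hours at five concentrations; endpoints were interpolated linearly between bracketing concentrations, or set to the highest concentration if not reached. GI50: concentration for 50% inhibition of growth. Definition used: TGI = concentration required for complete inhibition of growth.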

Assays:
Assay in all cases: DTP human tumour cell line panel, 48 h
[1] = test system: 786-0 renal
[2] = test system: HS 578T breast
[3] = test system: SK-MEL-5 melanoma
[4] = test system: UACC-257 melanoma
[5] = test system: SNB-75 CNS
[6] = test system: SW-620 colon
[7] = test system: BT-549 breast
[8] = test system: SK-MEL-28 melanoma
[9] = test system: SR leukemia
[10] = test system: HOP-92 NSCLC

Row | SMILES | GI50 [1] [µM] | TGI [1] [µM] | GI50 [2] [µM] | TGI [2] [µM] | GI50 [3] [µM] | TGI [3] [µM] | GI50 [4] [µM] | TGI [4] [µM] | GI50 [5] [µM] | TGI [5] [µM] | GI50 [6] [µM] | TGI [6] [µM] | GI50 [7] [µM] | TGI [7] [µM] | GI50 [8] [µM] | TGI [8] [µM] | GI50 [9] [µM] | GI50 [10] [µM] | TGI [10] [µM] | TGI [9] [µM]
1 | N[C@@H](CSSC[C@H](N)C(=O)N1CCn2cc(-c3ccccc3)nc2[C@@H]1CC1CCCCC1)C(=O)N1CCn2cc(-c3ccccc3)nc2[C@@H]1CC1CCCCC1 | 2.12 | 4.52 | 3.1 | > 100 | 0.361 | 1.53 | 1.4 | 3.32 | 1.79 | 3.3 | 1.24 | 3.36 | 2.23 | 3.91 | 0.529 | 1.96 | 1.38 | 2.45 | 5.8 | –
2 | O=C1/C(=C/c2ccccc2[N+](=O)[O-])COc2ccc(O)c(O)c21 | 0.805 | 4.74 | 2.05 | 12.6 | 1.53 | 3.02 | 1.42 | 4.06 | 1.46 | 6.17 | 0.353 | 1.44 | 0.882 | 4.02 | 1.33 | 2.97 | 0.476 | 1.1 | 2.9 | > 100
